We go through three molecules from article PMC10824666 (Nature Cancer, 2023).

Read-outs that look alike come from different tables or passages of the source.

Experiment [1] has as its target WEE1 (Homo sapiens, UniProt P30291). As to the kind of experiment: biochemical. Details: Eurofins DiscoverX kinase panel, competitive binding assay at 1 uM, percent of DMSO control. The conditions noted are these: competitive binding, percent of DMSO control. A digest of the protocol:
(§1)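 Competitive binding assay across a 96-kinase panel with KIF18A compounds at 1 µM; values given as percentage of control (POC), single experiment.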

The target in experiment [2] is T1, PKC ε (Homo sapiens, UniProt Q02156).
T1 construct: gene PRKCE
T1 sequence (Q02156 1-737): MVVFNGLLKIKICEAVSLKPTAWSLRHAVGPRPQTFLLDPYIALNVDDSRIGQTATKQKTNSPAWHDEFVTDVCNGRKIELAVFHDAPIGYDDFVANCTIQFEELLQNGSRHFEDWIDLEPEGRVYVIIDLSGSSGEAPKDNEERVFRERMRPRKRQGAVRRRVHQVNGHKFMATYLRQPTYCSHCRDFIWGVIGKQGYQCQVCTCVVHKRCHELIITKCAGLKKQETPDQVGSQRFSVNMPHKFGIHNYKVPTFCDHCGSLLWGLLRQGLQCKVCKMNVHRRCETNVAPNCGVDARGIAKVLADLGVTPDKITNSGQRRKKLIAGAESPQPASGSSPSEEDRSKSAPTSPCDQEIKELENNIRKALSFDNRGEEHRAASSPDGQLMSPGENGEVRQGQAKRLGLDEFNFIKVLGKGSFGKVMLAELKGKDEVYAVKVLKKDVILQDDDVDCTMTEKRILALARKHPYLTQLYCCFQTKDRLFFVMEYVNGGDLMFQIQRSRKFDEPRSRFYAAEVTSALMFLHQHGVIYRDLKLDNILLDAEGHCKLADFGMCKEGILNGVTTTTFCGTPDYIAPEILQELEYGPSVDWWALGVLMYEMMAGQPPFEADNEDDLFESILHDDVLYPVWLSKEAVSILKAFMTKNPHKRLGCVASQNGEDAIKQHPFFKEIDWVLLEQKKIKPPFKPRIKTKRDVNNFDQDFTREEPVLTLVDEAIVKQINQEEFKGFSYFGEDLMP
The experiment can be described thus: biochemical. The conditions noted are these: competitive binding, percent of DMSO control. Also on record: Eurofins DiscoverX kinase panel, competitive binding assay at 1 uM, percent of DMSO control. A digest of the protocol:
as §1

[3] abbreviates: read-out: Kinome Profiling performed by Eurofins DiscoverX / AM-0277, 1.0 µM / POC.
[4] abbreviates: read-out: Kinome Profiling performed by Eurofins DiscoverX / AM-1882, 1.0 µM / POC.
Setting [5] is: read-out: Kinome Profiling performed by Eurofins DiscoverX / AM-5308, 1.0 µM / POC.

Chain of WEE1 (P30291 whole entry): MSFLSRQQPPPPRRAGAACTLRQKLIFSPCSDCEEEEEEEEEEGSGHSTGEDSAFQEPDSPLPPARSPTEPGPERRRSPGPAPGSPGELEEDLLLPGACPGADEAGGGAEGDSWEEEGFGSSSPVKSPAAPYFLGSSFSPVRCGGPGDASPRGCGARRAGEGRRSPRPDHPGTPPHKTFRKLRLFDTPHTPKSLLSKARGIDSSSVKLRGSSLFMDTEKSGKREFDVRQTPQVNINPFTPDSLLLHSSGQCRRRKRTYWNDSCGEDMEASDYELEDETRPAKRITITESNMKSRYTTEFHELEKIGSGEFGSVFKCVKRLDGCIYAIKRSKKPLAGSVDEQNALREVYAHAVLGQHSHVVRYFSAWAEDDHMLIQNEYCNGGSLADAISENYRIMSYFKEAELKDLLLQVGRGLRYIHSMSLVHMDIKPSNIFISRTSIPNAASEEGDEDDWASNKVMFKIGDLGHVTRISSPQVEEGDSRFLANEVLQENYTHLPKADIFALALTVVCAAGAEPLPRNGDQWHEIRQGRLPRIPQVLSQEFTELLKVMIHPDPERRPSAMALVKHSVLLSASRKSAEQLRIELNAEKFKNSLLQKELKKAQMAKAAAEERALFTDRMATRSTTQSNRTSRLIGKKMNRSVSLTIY

As to `CC(C)(CO)Nc1ccc(C(=O)Nc2cccc(S(=O)(=O)C3CCCC3)c2)c(N2CCC3(CC2)CC3)n1` [AM-0277], the remaining activity at 1 µM in experiment [1] (setting [3]) and in experiment [2] (setting [3]) was 100% throughout.

With `CC(C)(C)NS(=O)(=O)c1cccc(NC(=O)c2ccc(S(=O)(=O)NC(C)(C)C)cc2N2CCC3(CC2)CC3)c1` [AM-1882], the figures for the remaining activity at 1 µM in experiment [1] (setting [4]) and in experiment [2] (setting [4]) were 50% and 93%, respectively.

For `C[C@@H]1CN(c2cccc(NC(=O)c3ccc(NS(=O)(=O)CCO)cc3N3CCC4(CC3)CC4)n2)CCO1` [AM-5308], the remaining activity at 1 µM worked out at 100% in experiment [1] (setting [5]) and 97.5% in experiment [2] (setting [5]).
